From the supplement of paper PMC10883282
± gives the standard deviation of the averaged measurements.

System: SW684
Experiment: relative viability vs DMSO control (72 h) (fraction); higher = more viable cells
Method in brief: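 Sarcoma cell lines went into 384-well plates at densities chosen to reach 80–90% confluence. After 24 h, each well received 2.5 µl of serially diluted compound, with source plates running from 10 mM to 0.0002 mM, and the plates were kept 72 h at 37 °C, 5% CO2, alongside 0.1% DMSO vehicle and a 5 µM positive control. Relative viability was derived from ATPLite readings as percent growth and averaged over up to triplicate wells. The data were then rescaled so that 1 stands for full and 0 for none.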

SMILES	relative viability (0.00017 µM)	relative viability (0.00051 µM)	relative viability (0.00152 µM)	relative viability (0.00457 µM)	relative viability (0.01372 µM)	relative viability (0.04115 µM)	relative viability (0.1235 µM)	relative viability (0.3704 µM)	relative viability (1.111 µM)	relative viability (3.333 µM)	relative viability (10 µM)
COc1cc2nccc(Oc3ccc(NC(=O)Nc4cc(C)on4)c(Cl)c3)c2cc1OC [Tivozanib]	1.17 ± 0.059	1.16 ± 0.028	1.19 ± 0.096	1.19 ± 0.054	1.16 ± 0.042	1.122 ± 0.0093	1.15 ± 0.027	1.23 ± 0.066	1.25 ± 0.092	1.12 ± 0.054	0.918 ± 0.037
C[C@]1(O)C[C@@H](c2nc(-c3ccc4ccc(-c5ccccc5)nc4c3)c3c(N)nccn32)C1 [Linsitinib]	1.13 ± 0.073	1.17 ± 0.016	1.18 ± 0.021	1.159 ± 0.0094	1.16 ± 0.065	1.14 ± 0.021	1.13 ± 0.039	1.11 ± 0.04	1.09 ± 0.035	1.07 ± 0.019	0.978 ± 0.057
C=CC(=O)Nc1cccc(Oc2nc(Nc3ccc(N4CCN(C)CC4)cc3)nc3ccsc23)c1 [Olmutinib]	1.07 ± 0.043	1.14 ± 0.069	1.08 ± 0.029	1.15 ± 0.061	1.05 ± 0.014	1.09 ± 0.025	1.149 ± 0.0031	1.14 ± 0.073	1.07 ± 0.049	0.849 ± 0.032	0.0282 ± 0.0066
O=C(Nc1cnn2ccc(N3CCC[C@@H]3c3cc(F)ccc3F)nc12)N1CC[C@H](O)C1 [Larotrectinib]	1.13 ± 0.057	1.19 ± 0.071	1.19 ± 0.044	1.16 ± 0.025	1.2 ± 0.073	1.15 ± 0.05	1.14 ± 0.043	1.17 ± 0.084	1.16 ± 0.021	1.09 ± 0.069	1.1 ± 0.04
